Laboratory results from the supplement of paper PMC10307832.

What was measured:
Assay in all cases: relative viability (nuclei count vs DMSO), 5 days (fraction); higher = more cells survive
[1] = compound: COc1cc2ncn(-c3cc(OCc4ccccc4C(F)(F)F)c(C(N)=O)s3)c2cc1OC + CC1(C)CCC(c2ccc(Cl)cc2)=C(CN2CCN(c3ccc(C(=O)NS(=O)(=O)c4ccc(N[C@H](CCN5CCOCC5)CSc5ccccc5)c(S(=O)(=O)C(F)(F)F)c4)cc3)CC2)C1 [Navitoclax] (partner 0.5 µM)
Summary of the method: (§1)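 A single step with final 0.05% Triton X-100, 1% formaldehyde and 1 ug/ml Hoechst fixed the cells and stained nuclei 5 days after treatment. Lung cancer cell lines in 1536-well plates had been treated by pin tool the day after seeding with one drug alone or a fixed anchor-drug dose plus five library-drug doses (not always all listed) in √10 steps, and nuclei were counted on 4× images. Relative viability is the ratio of nuclei in treated wells to nuclei in vehicle wells, taken as the median of duplicate plates.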

[2] = compound: COc1cc2ncn(-c3cc(OCc4ccccc4C(F)(F)F)c(C(N)=O)s3)c2cc1OC + O=C(CCCCCCC(=O)Nc1ccccc1)NO [Vorinostat] (partner 1 µM)
Summary of the method: as §1

[3] = compound: COc1cc2ncn(-c3cc(OCc4ccccc4C(F)(F)F)c(C(N)=O)s3)c2cc1OC + C[C@@H](Oc1cc(-c2cnn(C3CCNCC3)c2)cnc1N)c1c(Cl)ccc(F)c1Cl [Crizotinib] (partner 1 µM)
Summary of the method: as §1

[4] = compound: COc1cc2ncn(-c3cc(OCc4ccccc4C(F)(F)F)c(C(N)=O)s3)c2cc1OC + Cc1cc(Nc2cc(N3CCN(C)CC3)nc(Sc3ccc(NC(=O)C4CC4)cc3)n2)n[nH]1 [Tozasertib] (partner 0.1 µM)
Summary of the method: as §1

| Cell Line | relative viability ([1]; first compound 0.05 µM) | relative viability ([1]; first compound 0.1581 µM) | relative viability ([1]; first compound 0.5 µM) | relative viability ([1]; first compound 1.581 µM) | relative viability ([1]; first compound 5 µM) | relative viability ([2]; first compound 0.05 µM) | relative viability ([2]; first compound 0.1581 µM) | relative viability ([2]; first compound 0.5 µM) | relative viability ([2]; first compound 1.581 µM) | relative viability ([2]; first compound 5 µM) | relative viability ([3]; first compound 0.05 µM) | relative viability ([3]; first compound 0.1581 µM) | relative viability ([3]; first compound 0.5 µM) | relative viability ([3]; first compound 1.581 µM) | relative viability ([3]; first compound 5 µM) | relative viability ([4]; first compound 0.05 µM) | relative viability ([4]; first compound 0.1581 µM) | relative viability ([4]; first compound 0.5 µM) | relative viability ([4]; first compound 1.581 µM) | relative viability ([4]; first compound 5 µM) |
| --- | --- | --- | --- | --- | --- | --- | --- | --- | --- | --- | --- | --- | --- | --- | --- | --- | --- | --- | --- | --- |
| HARA | 1.18 | 1.06 | 0.531 | 0.26 | 0.0692 | 0.358 | 0.421 | 0.237 | 0.0932 | 0.0592 | 1.18 | 0.981 | 0.786 | 0.275 | 0.119 | 0.091 | 0.117 | 0.117 | 0.111 | 0.0871 |
| NCI-H2126 | 0.856 | 0.834 | 0.662 | 0.284 | 0.225 | 0.847 | 0.759 | 0.401 | 0.236 | 0.216 | 1.05 | 1 | 0.849 | 0.419 | 0.264 | 0.756 | 0.908 | 0.521 | 0.218 | 0.245 |
| LXF-289 | 0.852 | 0.72 | 0.192 | 0.104 | 0.0566 | 0.78 | 0.622 | 0.421 | 0.11 | 0.0692 | 0.8 | 0.615 | 0.453 | 0.147 | 0.0723 | 0.192 | 0.197 | 0.145 | 0.129 | 0.107 |
| NCI-H460 | 1.01 | 0.917 | 0.144 | 0.0132 | 0.0107 | 0.745 | 0.723 | 0.0471 | 0.0166 | 0.0169 | 1.14 | 0.899 | 0.0648 | 0.0097 | 0.0254 | 0.497 | 0.294 | 0.0449 | 0.0359 | 0.0337 |
| NCI-H2170 | 0.539 | 0.492 | 0.202 | 0.168 | 0.162 | 0.834 | 0.725 | 0.386 | 0.128 | 0.125 | 1.25 | 1.15 | 0.599 | 0.268 | 0.258 | 0.619 | 0.745 | 0.309 | 0.193 | 0.26 |
| NCI-H2009 | 1.14 | 1.07 | 0.666 | 0.0806 | 0.0608 | 0.667 | 0.607 | 0.302 | 0.0531 | 0.0578 | 1.01 | 0.825 | 0.445 | 0.208 | 0.253 | 0.625 | 0.625 | 0.353 | 0.301 | 0.227 |
